Assay results as given in US12433510B2, “Methods and systems for improved collection of interstitial fluid” (Georgia Tech Research Corporation, priority 2017, dated 2025).
Where two headings read alike, the source gives them in different places. Values belong to the molecule of their own block, whether it stands above or below them.

What was measured:
[1] = tested on: plasma proteins
[2] = human, in vivo
[3] = clinical; conditions: human, in vivo
[4] = in vivo; conditions: female, Wistar, rat, 1 mg/kg; for AUC: mean ± SD, n = 6 rats
[5] = iv, ISF, 1 mg/kg bolus intravenous
[6] = iv, Serum, 1 mg/kg bolus intravenous

SMILES: CCN=c1cc2oc3cc(NCC)c(C)cc3c(-c3ccccc3C(=O)OCC)c-2cc1C.Cl [R6G, rhodamine 6G]
R6G concentration in protein-free serum samples [1]: 0.05 ± 0.03 µM
R6G concentration in serum prior to filtration [1]: 9.6 ± 4.2 µM
binding to plasma proteins [1]: strongly binds to plasma proteins

CL [2]: 4.7 L/h
t1/2 [2]: 450 min
Cmax ([2]; 43 mg): 1030 ng/mL
Cmax ([3]; 43 mg, Cmax): 1060 ng/mL
AUC(0-t) ([3]; AUC(0-8 h)): 84 ng·h/mL
clearance ([3]; CL): 68.3 mL/min
half-life ([3]; t1/2): 564 min
SMILES: Cn1c(=O)c2c(ncn2C)n(C)c1=O [caffeine]

SMILES: CN[C@H](CC(C)C)C(=O)N[C@H]1C(=O)N[C@@H](CC(N)=O)C(=O)N[C@H]2C(=O)N[C@H]3C(=O)N[C@H](C(=O)N[C@H](C(=O)O)c4cc(O)cc(O)c4-c4cc3ccc4O)[C@H](O)c3ccc(c(Cl)c3)Oc3cc2cc(c3O[C@@H]2O[C@H](CO)[C@@H](O)[C@H](O)[C@H]2O[C@H]2C[C@](C)(N)[C@H](O)[C@H](C)O2)Oc2ccc(cc2Cl)[C@H]1O [vancomycin]
Tmax Ratio (ISF:serum) (1 mg/kg bolus intravenous): 2.7 ± 1.6
slope of linear correlation of paired ISF and serum drug levels (R2=0.40): 0.75±0.06
Tmax ([4]; delay in time to peak concentration (Tmax) in ISF compared to serum): ~17 min
Kp ([4]; iv, AUC Ratio (ISF:serum), 1 mg/kg bolus intravenous): 1.3 ± 0.2
AUC [4, 5]: 2300 ng·h/mL
AUC [4, 6]: 1770 ng·h/mL
Kp ([4]; iv, Cmax Ratio (ISF:serum), 1 mg/kg bolus intravenous): 0.9 ± 0.2
Cmax [4, 5]: 2500 ± 1000 ng/mL
Cmax [4, 6]: 2600 ± 600 ng/mL
Tmax ([4]; iv, Tmax, ISF, 1 mg/kg bolus intravenous): 26.6 min
Tmax ([4]; iv, Tmax, Serum, 1 mg/kg bolus intravenous): 10 min
